Patent US20230339915A1 (Vertex Pharmaceuticals Incorporated, priority 2020, published 2023)

Experiments:
[1] = molecular target: purified Z-AAT protein from human plasma (Homo sapiens (Human), UniProt P01009, E366K); assay: Biochemical Assay (Z-AAT Elastase Activity Assay); conditions: purified Z-AAT pre-incubated with compound 1 hour, then human neutrophil elastase and fluorescent substrate
From the text: B. Biochemical Assay (Z-AAT Elastase Activity Assay)
This assay measured the modulation of Compounds 1-227 on Z-AAT SERpIN activity using purified Z-AAT protein and purified human neutrophil elastase (hNE). Normally, when active monomeric Z-AAT encounters a protease such as trypsin or elastase, it forms a 1:1 covalent “suicide” complex in which both the AAT and protease are irreversibly inactivated. However, compounds binding to Z-AAT can lead to a decrease in SERpIN activity. In such cases, when a protease encounters compound-bound Z-AAT, the protease cleaves and inactivates Z-AAT without itself being inactivated.
Reagents • PBS buffer (media prep)+0.01% BRIJ35 detergent (Calbiochem catalog #203728) Opti-MEM media (Fisher 11058-021) • Human neutrophil elastase (hNE, Athens Research #16-14-051200) • 3.4 μM stock (0.1 mg/mL) prepared in 50 mM Na Acetate, pH 5.5, 150 mM NaCl, stored at −80° C. • Elastase substrate V (ES V, fluorescent peptide substrate MeOSuc-Ala-Ala-Pro-Val-AMC, Calbiochem catalog #324740) • 20 mM stock in DMSO, stored at −20° C. • Purified Z-AAT protein from human plasma; • 12.9 μM (0.67 mg/mL) Z-AAT Vertex Cambridge Sample 4942, from patient • #061-SSN, stored at −80 C
Plates • Corning 4511 (384 well black low volume)
Instruments • PerkinElmer® EnVision™
Pre-Incubation of Z-AAT with Compounds • 1. 7.5 μL of Z-AAT (20 nM) was incubated with compounds 1-227 in a GCA plate for 1 hour at room temperature
Addition of hNE • 1. 7.5 ul of HNE solution (3 nM in PBS+0.01% BRIJ35) added into GCA plate • 2. Incubate plate for 30 minutes to allow Z-AAT/HNE suicide complex formation.
Addition of Substrate and Read Plate on PE Envision • 1. 7.5 μL of substrate (300 μM solution of elastase substrate (ES V) in PBS+0.01% BRIJ35) dispensed per well into GCA plate • 2. Immediately read on Envision.

[2] = molecular target: NL20 human bronchial epithelial cells expressing human Z-AAT (Homo sapiens (Human), UniProt P01009, E366K); assay: AAT Function Assay (MSD Assay NL20-SI Cell Line); type: cell-based; conditions: functionally active AAT (AAT-hNE complex, MSD) in supernatant of NL20 cells expressing human Z-AAT; read-out: NL20 Functional EC50
Chain of NL20 human bronchial epithelial cells expressing human Z-AAT (P01009 25-418 E366K limits assumed): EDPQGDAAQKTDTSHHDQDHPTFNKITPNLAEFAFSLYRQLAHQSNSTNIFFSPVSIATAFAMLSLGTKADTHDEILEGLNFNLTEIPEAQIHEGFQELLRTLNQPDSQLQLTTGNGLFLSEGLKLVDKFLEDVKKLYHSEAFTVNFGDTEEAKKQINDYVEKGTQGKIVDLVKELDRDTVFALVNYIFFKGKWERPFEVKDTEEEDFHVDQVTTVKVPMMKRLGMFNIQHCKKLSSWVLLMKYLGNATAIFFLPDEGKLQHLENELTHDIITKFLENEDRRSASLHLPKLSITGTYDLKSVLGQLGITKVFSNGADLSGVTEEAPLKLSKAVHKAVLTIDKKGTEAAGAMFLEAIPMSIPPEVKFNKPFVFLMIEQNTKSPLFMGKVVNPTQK
Procedure: A. AAT Function Assay (MSD Assay NL20-SI Cell Line)
Alpha-1 antitrypsin (AAT) is a SERpIN (serine protease inhibitor) that inactivates enzymes by binding to them covalently. This assay measured the amount of functionally active AAT in a sample in the presence of the disclosed Compounds 1-227 by determining the ability of AAT to form an irreversible complex with human neutrophil Elastase (hNE). In practice, the sample (cell supernatant, blood sample, or other) was incubated with excess hNE to allow AAT-Elastase complex to be formed with all functional AAT in the sample. This complex was then captured to a microplate coated with an anti-AAT antibody. The complex captured to the plate was detected with a labeled anti-Elastase antibody and quantitated using a set of AAT standards spanning the concentration range present in the sample. Meso Scale Discovery (MSD) plate reader, Sulfo-tag labeling, and microplates were used to provide high sensitivity and wide dynamic range.
Instrument(S): • Meso Sector S600 • Bravo • Washer dispenser • Multidrop Combi
Day 1 Cell Culture • 1. Harvest NL20 human bronchial epithelial cells expressing human Z-AAT in OptiMEM™ containing Pen/Strep (P/S) • 2. Seed at 16,000 cells/well in 30 μL (384 well plate) • 3. Centrifuge plates briefly up to speed (1200 rpm) and place into 37° C. incubator overnight
Day 2: Compound Addition and Coating Plates with Capture Antibody
Compound Addition: • 1. Dispense 40 μL of OptiMEM™ (P/S) with doxycycline (1:1000 stock=0.1 μM final) to each well of the compound plate using a multidrop Combi in hood • 2. Remove cell plate from incubator, flip/blot and take immediately to Bravo to transfer compounds • 3. Return plates to incubator overnight
Coat MSD Plates • 1. Dilute capture antibody (Polyclonal Goat anti-AAT) to 5 μg/mL (1:200) in PBS (no BSA). • 2. Dispense 25 μL of diluted capture antibody into all wells of MSD 384-well High Bind plate using the Multidrop equipped with a standard cassette. • 3. Incubate overnight at 4° C.
Prepare Blocker A (BSA) Solutions • 1. Prepare solution of 5% MSD Blocker A (BSA) following the manufacturer's instructions. • 2. Further dilute the 5% MSD Blocker A in PBS to 1% (Blocker A) as needed.
Block Plates • 1. Wash plate 1× with 50 μL Wash buffer (PBS+0.5% Tween 20), and adds 35 μL 5% Block A buffer to block non-specific binding on washer dispenser • 2. Rotate plates on shaker for 1 hour at 600 rpm
Prepare M-AA T Standards • 1. Dilute M-AAT stock to 1.6 μg/mL in 1% BSA Blocker A (Stock in −70° C.); then prepare 12×1:2 serial dilutions in 1% Blocker A • 2. The top starting final concentration on MSD plate is 320 ng/mL. These dilutions correspond to a final concentration of 320, 160, 80, 40, 20, 10, 5, 2.5, 1.25, 0.625, 0.312, 0.156 ng/mL.
Dilution Plate • 1. Add 80 μL of 1% Assay buffer to all wells except columns 1/24 (standards) with Multidrop Combi • 2. Add diluted standards to columns 1 and 24 • 3. Centrifuge dilution plates 1200 rpm briefly
Cell Plate • 1. Aspirate columns which will have the standards from the cell plates in the hood using 16-pin aspirator
Prepare Human Neutrophil Elastase (hNE) • 1. Prepare 1 μg/mL Human Neutrophil Elastase by diluting in 1% Blocker A. • a. Small 100 μg vial—add 1 mL PBS (100 μg/mL) • i. This can then be diluted 1:100 in 1% Assay Buffer for a final 1 μg/mL concentration
MSD—add hNE (20 μL/well) • 1. After the MSD plate has blocked for at least 1 hour, wash plate 1× with 50 μL Wash buffer (PBS+0.5% Tween 20) and then add 20 μL hNE to each well
Bravo—Cell Plate—Dilution Plate—MSD Plate
Using the Bravo aspirate 10 μL from the cell plate, transfer to the dilution plate (9-fold dilution) • 1. Mix 25 μL 3×, then aspirate 5 μL, transfer to MSD plate (5-fold dilution) • 2. Mix 10 μL 3×. Total dilution is 45 fold. • 3. Shake plates at 600 rpm for 1.5 hours
Add Functional Detection hNE Antibody • 1. Wash plate 1× with wash buffer • 2. […]

Chain of purified Z-AAT protein from human plasma (P01009 25-418 E366K limits assumed): as above

Row | Structure (SMILES) | IC50 [1] | EC50 [2]
1 | Cc1cc(-n2c(C3CCOCC3)c(C[C@H]3C[C@@H](C(=O)O)C3)c3cc(O)ccc32)ccc1F [Compound 8] | > 30000 nM | 500 to 2000 nM
2 | Cc1cc(-n2c(C3CCOCC3)c([C@H]3C[C@@](C(=O)O)(C(F)(F)F)C3)c3cc(O)ccc32)ccc1F [Compound 9] | > 5000 nM | 500 to 2000 nM
3 | Cc1cc(-n2c(C3CCOCC3)c(CCC(F)(F)C(=O)O)c3cc(O)ccc32)ccc1F [Compound 10] | > 30000 nM | > 2000 nM
4 | Cc1cc(-n2c(C3CCOCC3)c([C@H]3CC4(C[C@H](C(=O)O)C4)C3)c3cc(O)ccc32)ccc1F (stereo partly drawn) [Compound 11] | > 30000 nM | < 500 nM
5 | Cc1cc(-n2c(C3CCOCC3)c([C@H]3CC4(C[C@H](C(=O)O)C4)C3)c3cc(O)ccc32)ccc1F (stereo partly drawn) [Compound 12] | > 5000 nM | < 500 nM
6 | Cc1cc(-n2c(C3CCOCC3)c(CC3(C(=O)O)CCC3)c3cc(O)ccc32)ccc1F [Compound 13] | > 30000 nM | > 2000 nM
7 | Cc1cc(-n2c(C3CCOCC3)c(CCC(C)(C)C(=O)O)c3cc(O)ccc32)ccc1F [Compound 14] | > 30000 nM | 500 to 2000 nM
8 | CO[C@]1(C(=O)O)C[C@H](c2c(C3CCOCC3)n(-c3ccc(F)c(C)c3)c3ccc(O)cc32)C1 [Compound 15] | > 30000 nM | > 2000 nM
9 | CO[C@]1(C(=O)O)C[C@@H](c2c(C3CCOCC3)n(-c3ccc(F)c(C)c3)c3ccc(O)cc32)C1 [Compound 16] | > 30000 nM | > 2000 nM
10 | Cc1cc(-n2c(C3CCOCC3)c([C@H]3C[C@H](C(=O)O)C3)c3cc(O)ccc32)ccc1F [Compound 20] | > 30000 nM | > 2000 nM
11 | Cc1cc(-n2c(C3CCOCC3)c([C@H]3C[C@@H](C(=O)O)C3)c3cc(O)ccc32)ccc1F [Compound 21] | > 30000 nM | > 2000 nM
12 | Cc1cc(-n2c(C(C)C)c([C@H]3C[C@](C)(C(=O)O)C3)c3c(F)c(O)c(F)cc32)ccc1F [Compound 22] | 2000 to 5000 nM | 500 to 2000 nM
13 | Cc1cc(-n2c(C(C)C)c([C@H]3C[C@@](C)(C(=O)O)C3)c3c(F)c(O)c(F)cc32)ccc1F [Compound 23] | > 30000 nM | 500 to 2000 nM
14 | O=C(O)[C@H]1CC[C@@H](c2c(C3CCOCC3)n(-c3ccc(F)c(Cl)c3)c3ccc(O)cc32)CC1 [Compound 24] | > 30000 nM | > 2000 nM
15 | Cc1cc(-n2c(C3CCOCC3)c(CC3CC(C(=O)O)C3)c3cc(O)ccc32)ccc1F (stereo not drawn) [Compound 25] | > 30000 nM | 500 to 2000 nM
16 | Cc1cc(-n2c(C(C)C)c(CC(C)C(=O)O)c3cc(O)ccc32)ccc1F (stereo not drawn) [Compound 26] | > 30000 nM | > 2000 nM
17 | C[C@]1(C(=O)O)C[C@H](c2c(C3CCOCC3)n(-c3ccc(F)c(Cl)c3)c3ccc(O)cc32)C1 [Compound 27] | > 5000 nM | 500 to 2000 nM

Row | Structure (SMILES) | IC50 [1] | EC50 [2]
18 | C[C@]1(C(=O)O)C[C@@H](c2c(C3CCOCC3)n(-c3ccc(F)c(Cl)c3)c3ccc(O)cc32)C1 [Compound 28] | > 30000 nM | > 2000 nM
19 | CC(C)(CCc1c(C2CCOCC2)n(-c2ccc(F)c(Cl)c2)c2ccc(O)cc12)C(=O)O [Compound 29] | > 30000 nM | 500 to 2000 nM
20 | CC(C)(CCc1c(C2CCOCC2)n(-c2ccc(F)cc2)c2ccc(O)cc12)C(=O)O [Compound 30] | > 30000 nM | 500 to 2000 nM
21 | O=C(O)C1CC2(C1)CC(c1c(C3CCOCC3)n(-c3ccc(F)c(Cl)c3)c3ccc(O)cc13)C2 (stereo not drawn) [Compound 31] | > 5000 nM | < 500 nM
22 | O=C(O)[C@H]1CC2(C1)C[C@H](c1c(C3CCOCC3)n(-c3ccc(F)c(Cl)c3)c3ccc(O)cc31)C2 (stereo partly drawn) [Compound 32] | > 5000 nM | < 500 nM
23 | O=C(O)[C@H]1CC2(C1)C[C@H](c1c(C3CCOCC3)n(-c3ccc(F)c(Cl)c3)c3ccc(O)cc31)C2 (stereo partly drawn) [Compound 33] | > 5000 nM | < 500 nM
24 | O=C(O)[C@H]1C[C@H](Cc2c(C3CCOCC3)n(-c3ccc(F)c(Cl)c3)c3ccc(O)cc23)C1 [Compound 34] | > 30000 nM | > 2000 nM
25 | O=C(O)[C@H]1C[C@@H](Cc2c(C3CCOCC3)n(-c3ccc(F)cc3)c3ccc(O)cc23)C1 [Compound 35] | > 30000 nM | > 2000 nM
26 | O=C(O)[C@H]1C[C@H](Cc2c(C3CCOCC3)n(-c3ccc(F)cc3)c3ccc(O)cc23)C1 [Compound 36] | > 30000 nM | > 2000 nM
27 | O=C(O)[C@]1(C(F)(F)F)C[C@@H](c2c(C3CCOCC3)n(-c3ccc(F)c(Cl)c3)c3ccc(O)cc32)C1 [Compound 37] | > 5000 nM | 500 to 2000 nM
28 | O=C(O)[C@]1(C(F)(F)F)C[C@H](c2c(C3CCOCC3)n(-c3ccc(F)c(Cl)c3)c3ccc(O)cc32)C1 [Compound 38] | > 30000 nM | > 2000 nM
29 | C[C@]1(C(=O)O)C[C@H](c2c(C3CCOCC3)n(-c3ccc(F)c(F)c3)c3ccc(O)cc32)C1 [Compound 39] | > 30000 nM | > 2000 nM
30 | C[C@]1(C(=O)O)C[C@@H](c2c(C3CCOCC3)n(-c3ccc(F)c(F)c3)c3ccc(O)cc32)C1 [Compound 40] | > 30000 nM | > 2000 nM
31 | O=C(O)[C@H]1CC2(C1)C[C@H](c1c(C3CCOCC3)n(-c3ccc(F)c(F)c3)c3ccc(O)cc31)C2 (stereo partly drawn) [Compound 41] | > 30000 nM | 500 to 2000 nM
32 | O=C(O)[C@H]1CC2(C1)C[C@H](c1c(C3CCOCC3)n(-c3ccc(F)c(F)c3)c3ccc(O)cc31)C2 (stereo partly drawn) [Compound 42] | > 30000 nM | 500 to 2000 nM
33 | Cc1cc(-n2c(C3CCS(=O)(=O)CC3)c([C@H]3C[C@@](C(=O)O)(C(F)(F)F)C3)c3cc(O)ccc32)ccc1F [Compound 43] | > 30000 nM | > 2000 nM
